One test deals with USP7 MATH. It counts as binding, human. Particulars: DMS-CoV library, bait USP7 MATH, prey N, parental peptide SKQLQQSMSSADSTQA, label suffix = wt residue, displayed residue (same letter = wild type), x = no value.
For test [1], the target named is T1, NSP3 SUD-M (Severe acute respiratory syndrome coronavirus 2, UniProt P0DTC1). As to the kind of experiment: biochemical. It counts as binding, SARS‐CoV‐2.
The target of test [2] is T2, NSP3 ADRP (Severe acute respiratory syndrome coronavirus 2, UniProt P0DTC1). As to the kind of experiment: biochemical. It counts as binding, SARS‐CoV‐2.
Another test concerns the target TLN1 PTB (Homo sapiens, UniProt Q9Y490). As to the kind of experiment: biochemical. It counts as binding.
Test [3] addresses T3, NSP3 UBl1 (Severe acute respiratory syndrome coronavirus 2, UniProt P0DTC1). As to the kind of experiment: biochemical. It counts as binding, SARS‐CoV‐2.
The target of test [4] is T2, NSP3 ADRP. As to the kind of experiment: biochemical. It counts as binding, SARS‐CoV‐2. The source holds these as a separate data set.
The target of a further test is G3BP1 NTF2 (Homo sapiens, UniProt Q13283). Kind of test: biochemical. It counts as binding. Particulars: for pKd: KD.
Test [5] has as its target T1, NSP3 SUD-M. As to the kind of experiment: biochemical. It counts as binding, SARS‐CoV‐2. The source holds these as a separate data set.
Test [6] concerns the target T3, NSP3 UBl1. Kind of test: biochemical. It counts as binding, SARS‐CoV‐2. The source holds these as a separate data set.
In the next test the target is NSP9 (Severe acute respiratory syndrome coronavirus 2, UniProt P0DTC1). Kind of test: biochemical. It counts as binding, SARS‐CoV‐2.

Consider 44 molecules from article PMC12102759 (Protein Science : A Publication of the Protein Society, 2025).

pIC50, pKd: −log10 of the molar value. Where two headings read alike, the source gives them in different places. Residues, ends and D or L forms follow the SMILES beside them. *: point of attachment. FITC = O=C1OC2(c3ccc(O)cc3Oc3cc(O)ccc32)c2ccc(NC(=S)*)cc21

Chain of TLN1 PTB (Q9Y490 309-401): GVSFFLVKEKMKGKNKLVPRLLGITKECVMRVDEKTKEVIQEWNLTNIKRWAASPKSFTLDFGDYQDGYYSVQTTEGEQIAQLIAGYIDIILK
Chain of G3BP1 NTF2 (Q13283 1-139): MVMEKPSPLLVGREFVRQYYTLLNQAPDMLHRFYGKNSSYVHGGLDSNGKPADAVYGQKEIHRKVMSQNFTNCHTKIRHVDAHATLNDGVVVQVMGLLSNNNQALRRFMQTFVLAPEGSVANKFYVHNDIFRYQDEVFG

As for SKQLQQSMSSADSTQA K2V (SVQLQQSMSSADSTQA), in the test on USP7 MATH, the “DMS PSSM value (matrix of displayed amino acid x peptide position)” value (from here on “DMS PSSM value”) was 1.

Consider Ac-QFTEENLHFVLYGVTPY-NH2 [PRDM14 D201N], for which, on NSP3 SUD-M [1], the pIC50 is 2.85 and the negative logarithm of the Kd (pKd) was 3.50.

As for SKQLQQSMSSADSTQA S10S, in the test with USP7 MATH, the “DMS PSSM value” value is listed as 1.

For the molecule SKQLQQSMSSADSTQA Q6Q, the “DMS PSSM value” value in the test with USP7 MATH stood at 1.

Regarding Ac-QFTEEDLMFVLYGVTPY-NH2 [PRDM14 H203M], on NSP3 SUD-M [1], the pIC50 is 3.91 and the negative logarithm of the Kd (pKd) is 4.89.

“SKQLQQSMSSADSTQA T14V (SKQLQQSMSSADSVQA)”: the “DMS PSSM value” value in the test on USP7 MATH turned out to be 1.

Regarding SKQLQQSMSSADSTQA S13S, the “DMS PSSM value” value in the test on USP7 MATH is 1.

Take Ac-QFTEEELHFVLYGVTPY-NH2 [PRDM14 D201E]: at NSP3 SUD-M [1], the pIC50 is 4.05, the pKd was 5.27 and the “fold increase in affinity compared to wild‐type PRDM14 peptide” value was 14 fold.

On NSP3 ADRP [2], Ac-STYLHPLSELLTIPLD-NH2 [MBOAT1 G28T] gave a pIC50 of 3.51 and a pKd of 3.98.

Ac-STALHPLSELLGIPLDY-NH2 [MBOAT1 Y19A]: on NSP3 ADRP [2], the pIC50 was 3.34 and the pKd is 3.79.

On NSP3 ADRP [2], Ac-STYLHPLSELFGIPLD-NH2 [MBOAT1 L27F] gave a pIC50 of 3.59 and a pKd of 4.09.

For Ac-QFTEEDLHFVLEGVTPY-NH2 [PRDM14 Y207E], on NSP3 SUD-M [1], the negative-log IC50 (pIC50) is 3.61 and the pKd is 4.40.

On to SKQLQQSMSSADSTQA Q15Q, for which, in the test with USP7 MATH, the “DMS PSSM value” value was 1.

For the molecule SKQLQQSMSSADSTQA S1S, the “DMS PSSM value” value in the test on USP7 MATH came out at 1.

In the case of SKQLQQSMSSADSTQA M8M, the “DMS PSSM value” value with USP7 MATH came to 1.

Take “Ac-LADLIWTDSKLYIPLE-NH2 [TPTE2_92‐107 F97W]”: at TLN1 PTB, the pKd is 7.00 and the “fold higher affinity than wild‐type TPTE2_92‐107” value stood at 44 fold.

On NSP3 UBl1 [3], Ac-PSDEGALLDQLYLALR-NH2 [NCOA2 wt] had a pIC50 of 3.86 and a negative logarithm of the Kd (pKd) of 4.41.

As to “Ac-PSDEQALLQQLYLALR-NH2 [NCOA2 G1077Q D1081Q]”, at NSP3 UBl1 [3], the negative logarithm of the IC50 (pIC50) was 4.18 and the pKd is 5.29.

Molecule `CC[C@H](C)[C@H](NC(=O)CNC(=O)[C@H](CC(C)C)NC(=O)[C@H](CC(C)C)NC(=O)[C@H](CCC(=O)O)NC(=O)[C@H](CO)NC(=O)[C@H](CC(C)C)NC(=O)[C@@H]1CCCN1C(=O)[C@H](Cc1c[nH]cn1)NC(=O)[C@H](CC(C)C)NC(=O)[C@H](Cc1ccc(O)cc1)NC(=O)[C@@H](NC(=O)[C@H](CO)NC(=O)CNC(=S)Nc1ccc2c(c1)C(=O)OC21c2ccc(O)cc2Oc2cc(O)ccc21)[C@@H](C)O)C(=O)N1CCC[C@H]1C(=O)N[C@@H](CC(C)C)C(=O)O` ({FITC}-GSTYLHPLSELLGIPL-OH) had a negative-log Kd (pKd) on NSP3 ADRP [4] of 4.29.

With Ac-PSDEQALLDQLYLALR-NH2 [NCOA2 G1077Q], at NSP3 UBl1 [3], the negative logarithm of the IC50 (pIC50) was 4.01 and the negative logarithm of the Kd (pKd) was 4.72.

Turning to Ac-LADLIFTDSKLYIPLE-NH2 [TPTE2 wt], on TLN1 PTB, the pIC50 is 4.82 and the pKd was 5.35.

At NSP3 SUD-M [1], Ac-QFTEEALHFVLYGVTPY-NH2 [PRDM14 D201A] gave a pIC50 of 2.98 and a negative-log Kd (pKd) of 3.65.

On NSP3 UBl1 [3], Ac-PSDEGALLQQLYLALR-NH2 [NCOA2 D1081Q] showed a pIC50 of 3.97 and a negative-log Kd (pKd) of 4.62.

On to SKQLQQSMSSADSTQA Q3Q, for which the “DMS PSSM value” value in the test with USP7 MATH is reported as 1.

On G3BP1 NTF2, Ac-AERITFGGPSDSTGSY-NH2 [N P13E] showed a negative logarithm of the IC50 (pIC50) of 4.66 and a pKd of 5.17.

As to Ac-STYLHPLSELLGIPFD-NH2 [MBOAT1 L31F], on NSP3 ADRP [2], the pIC50 was 3.55 and the pKd was 4.03.

With SKQLQQSMSSADSTQA S7S, in the test on USP7 MATH, the “DMS PSSM value” value amounted to 1.

Take SKQLQQSMSSADSTQA Q5Q: the “DMS PSSM value” value in the test with USP7 MATH worked out at 1.

As for SKQLQQSMSSADSTQA A11A, the “DMS PSSM value” value in the test on USP7 MATH turned out to be 1.

Take `CC(C)C[C@H](NC(=O)[C@H](CC(=O)O)NC(=O)[C@H](CCC(=O)O)NC(=O)[C@H](CCC(=O)O)NC(=O)[C@@H](NC(=O)[C@H](Cc1ccccc1)NC(=S)Nc1ccc2c(c1)C(=O)OC21c2ccc(O)cc2Oc2cc(O)ccc21)[C@@H](C)O)C(=O)N[C@@H](Cc1c[nH]cn1)C(=O)N[C@@H](Cc1ccccc1)C(=O)N[C@H](C(=O)N[C@@H](CC(C)C)C(=O)N[C@@H](Cc1ccc(O)cc1)C(=O)NCC(=O)N[C@H](C(=O)N[C@H](C(=O)N1CCC[C@H]1C(=O)N[C@@H](CO)C(=O)O)[C@@H](C)O)C(C)C)C(C)C` ({FITC}-FTEEDLHFVLYGVTPS-OH): the negative logarithm of the Kd (pKd) at NSP3 SUD-M [5] is 4.72.

On NSP3 ADRP [2], Ac-STYLHPLSELLGMPLD-NH2 [MBOAT1 I29M] had a negative logarithm of the IC50 (pIC50) of 3.57 and a pKd of 4.06.

The molecule Ac-LADLIFTDSALYIPLE-NH2 [TPTE2_K101A] had a pKd at TLN1 PTB of 4.82.

Molecule `CC(C)C[C@H](NC(=O)[C@H](C)NC(=O)[C@H](CC(C)C)NC(=O)[C@H](Cc1ccc(O)cc1)NC(=O)[C@H](CC(C)C)NC(=O)[C@H](CCC(N)=O)NC(=O)[C@H](CC(=O)O)NC(=O)[C@H](CC(C)C)NC(=O)[C@H](CC(C)C)NC(=O)[C@H](C)NC(=O)CNC(=O)[C@H](CCC(=O)O)NC(=O)[C@H](CC(=O)O)NC(=O)[C@H](CO)NC(=S)Nc1ccc2c(c1)C(=O)OC21c2ccc(O)cc2Oc2cc(O)ccc21)C(=O)N[C@@H](CCCNC(=N)N)C(=O)N[C@@H](CC(N)=O)C(=O)O` ({FITC}-SDEGALLDQLYLALRN-OH) had a pKd at NSP3 UBl1 [6] of 4.17.

With SKQLQQSMSSADSTQA S9S, in the test on USP7 MATH, the “DMS PSSM value” value worked out at 1.

Take SKQLQQSMSSADSTQA D12D: the “DMS PSSM value” value in the test on USP7 MATH is reported as 1.

In the case of Ac-QFTEEDLHFVLYGVTPY-NH2 [PRDM14 wt], at NSP3 SUD-M [1], the negative logarithm of the IC50 (pIC50) was 3.40 and the negative-log Kd (pKd) is 4.13.

Ac-APRITFGGPSDSTGSY-NH2 [N12–26] had a pKd at G3BP1 NTF2 of 5.70.

Molecule `CC[C@H](C)[C@H](NC(=O)CNC(=O)[C@H](CCC(=O)O)NC(=O)[C@H](C)NC(=S)Nc1ccc2c(c1)C(=O)OC21c2ccc(O)cc2Oc2cc(O)ccc21)C(=O)N[C@@H](CC(=O)O)C(=O)N[C@H](C(=O)NCC(=O)N[C@@H](CCC(=O)O)C(=O)N[C@@H](CCSC)C(=O)N1CCC[C@H]1C(=O)N[C@@H](CO)C(=O)N[C@@H](Cc1ccc(O)cc1)C(=O)N[C@@H](CC(=O)O)C(=O)N[C@@H](CC(C)C)C(=O)N[C@H](C(=O)N[C@@H](CC(C)C)C(=O)O)C(C)C)[C@@H](C)CC` had a negative-log Kd (pKd) at NSP9 of 4.81.

Ac-STYLHPLSELLGIPLD-NH2 [MBOAT1 wt] gave a negative-log IC50 (pIC50) against NSP3 ADRP [2] of 3.76.

On to Ac-APRIEFGGPSDSTGSY-NH2 [N12–26 T16E], for which, on G3BP1 NTF2, the “effect of mutation on affinity, in words” value was “sevenfold loss of affinity” and the pKd is 4.80.

Take Ac-DPRITFGGPSDSTGSY-NH2 [N A12D]: on G3BP1 NTF2, the pIC50 is 5.00 and the pKd was 5.57.

Ac-LADLIFTDSKLYLPLE-NH2 [TPTE2_I104L] showed a negative-log Kd (pKd) on TLN1 PTB of 5.35.

As to Ac-APLITFGGPSDSTGSY-NH2 [N R14L], on G3BP1 NTF2, the pIC50 was 4.96 and the negative logarithm of the Kd (pKd) was 5.52.

As to Ac-STYIHPLSELLGIPLD-NH2 [MBOAT1 L20I], at NSP3 ADRP [2], the pIC50 was 3.37 and the pKd is 3.82.
